One block for each molecule: values may come before it.
Experiments:
hTAS2R38 = biological target: T1, hTAS2R38 (Homo sapiens, UniProt P59533); experiment: FLIPR assay, heterologous expression of hTAS2R38; format: cell-based
T1 construct: gene-specific primers that span the complete coding region ... contains the first 45 amino acids of the rat somatostatin type 3 receptor
T1 sequence (P59533 1-333 A49P/I296V): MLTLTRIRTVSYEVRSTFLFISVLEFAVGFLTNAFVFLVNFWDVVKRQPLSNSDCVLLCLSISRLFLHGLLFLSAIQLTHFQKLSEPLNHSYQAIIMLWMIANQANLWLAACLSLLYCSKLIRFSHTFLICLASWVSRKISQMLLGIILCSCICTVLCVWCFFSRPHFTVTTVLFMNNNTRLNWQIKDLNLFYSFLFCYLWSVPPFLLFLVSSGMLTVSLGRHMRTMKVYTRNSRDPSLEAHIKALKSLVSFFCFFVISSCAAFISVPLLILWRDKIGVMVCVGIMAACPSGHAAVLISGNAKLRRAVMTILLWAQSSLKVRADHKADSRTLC
From the text: These cells stably express a chimeric G protein constructed from human Gα16 and rat gustducin. Finally, we seeded the transfected cells at a density of 3×10^3 cells per well into 96-well black-wall, clear-bottom microtiter plates (Greiner).
Co-transfection of TAS2Rs with gustducin and phospholipase-Cβ2 into HEK-293 cells. Alternatively, we transfected simultaneously plasmid DNAs encoding one of the TAS2Rs, phospholipase-Cβ2 and α-gustducin into HEK-293 cells using the lipofectamine method. Additional cotransfection of G-protein β and γ-subunits may improve the bitter tastant-induced responses. Thereafter, the transfected cells were seeded at a density of 3×10^3 cells per well into 96-well black-wall, clear-bottom microtiter plates (Greiner).
Thereafter, cells were gently washed in HBS by an automated plate washer (Denley Cellwash, Labsystenms) and transferred to the FLIPR (Molecular Devices). The FLIPR integrates an argon laser excitation source, a 96-well pipettor, and a detection system utilizing a Charged Coupled Device imaging camera. […] Fluorescence data were collected 1 min before and 10 min after stimulation. Data were collected every 6 s before and every 1 s after agonist stimulation. 50 μl of 3× concentrated agonists were delivered within 2 by the integrated 96-well pipettor to the wells containing 100 μl HBS. Agonist responses were quantified using the amplitudes of the fluorescence peaks. We averaged the responses of five wells containing cells expressing the same receptor and that received the same stimulus. Calcium traces were determined in triplicate of mock-transfected cells stimulated with the same concentration of tastant.

hT2R4 receptor = biological target: T2, hT2R4 receptor (Homo sapiens, UniProt Q9NYW5); conditions: concentrations needed two orders of magnitude above human taste thresholds; cited from earlier work
T2 sequence (Q9NYW5 1-299): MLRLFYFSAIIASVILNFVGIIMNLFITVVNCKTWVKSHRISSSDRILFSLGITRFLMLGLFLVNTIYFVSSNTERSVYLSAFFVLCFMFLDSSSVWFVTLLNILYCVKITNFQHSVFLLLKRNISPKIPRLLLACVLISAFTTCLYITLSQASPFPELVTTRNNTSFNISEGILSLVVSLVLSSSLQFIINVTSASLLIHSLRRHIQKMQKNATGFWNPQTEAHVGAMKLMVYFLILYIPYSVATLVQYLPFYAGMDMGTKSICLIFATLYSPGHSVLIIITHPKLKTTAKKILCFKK

hTAS2R16 [1] = biological target: T3, hTAS2R16 (Homo sapiens, UniProt Q9NYV7, R222H); experiment: FLIPR calcium assay, hTAS2R16-expressing HEK293/15 transfectants; format: cell-based
T3 construct: gene-specific primers that span the complete coding region of the individual hTAS2R genes; first 45 amino acids of rat somatostatin type 3 receptor (cell surface-targeting signal) (N); expressed in transfected cells; host or cells: HEK293/15 cells (HEK293 stably expressing Galpha15), transient transfection
T3 sequence (Q9NYV7 1-291 R222H): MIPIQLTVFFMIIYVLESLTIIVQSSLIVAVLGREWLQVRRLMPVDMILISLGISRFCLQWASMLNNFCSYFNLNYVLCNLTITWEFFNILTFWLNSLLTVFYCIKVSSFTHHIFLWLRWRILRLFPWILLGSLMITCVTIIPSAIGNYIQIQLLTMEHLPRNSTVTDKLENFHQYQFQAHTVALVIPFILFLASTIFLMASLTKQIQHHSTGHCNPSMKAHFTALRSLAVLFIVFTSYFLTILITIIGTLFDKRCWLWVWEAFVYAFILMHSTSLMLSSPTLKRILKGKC
Protocol: A fluorescence imaging plate reader (FLIPR, Molecular Devices) was used to functionally screen cell populations transiently transfected with expression vectors encoding the above-described 24 bitter receptors and to establish concentration-response curves for hTAS2R16 and hTASR10. […] For the FLIPR experiments the HEK293/15 cells were grown to 50% confluence. […] After 48 h the cells in each well were transfected using Lipofectamine 2000 and 24-30 h later were loaded with FIuo4AM (Molecular Probes). Thereafter they were stimulated with bitter compounds (SigmaAldrich, further purified by reversed-phase HPLC to >99% purity). Calcium signals were recorded simultaneously from each well at 1 Hz at 510 nm after excitation at 488 nm and the recordings were corrected for cell density. […] The calculations rest on at least four independent transfection experiments.
EC50 and threshold values obtained with hTAS2R16-expressing transfectants are shown in Table 1 below and the results are described in Example 4.

human panelists [2] = experiment: Human taste experiments: bitter thresholds and dose-response by sensory panel; format: in vivo
Protocol: 15 experienced panelists in a sensory panel room at 22-25° C. determined bitter thresholds on three different sessions using a triangle test with tap water as solvent, according to methodology set out in J. Agric. Food Chem., 49, 231-238 (2001), or Mailgaard M et al, “Sensory Evaluation Techniques” (CRC Press LLC, New York 1999). For dose-response relations, bitter tastant concentration series were presented to 10 trained panelists in random order. The panelists ranked the samples in increasing order of intensity and, for each concentration, evaluated bitterness intensity on a scale from 0 to 5 (ref. 24). The dose-response curves of three different sessions were averaged. The intensity values between individuals and separate sessions differed by not more than 0.5 units.

hTAS2R16 [3] = biological target: T3, hTAS2R16; experiment: Single-cell Ca2+ imaging, hTAS2R16-transfected HEK293/15 cells (selectivity, cross-desensitization); format: cell-based
Protocol: A fluorescence imaging plate reader (FLIPR, Molecular Devices) was used to functionally screen cell populations transiently transfected with expression vectors encoding the above-described 24 bitter receptors and to establish concentration-response curves for hTAS2R16 and hTASR10. […] For the FLIPR experiments the HEK293/15 cells were grown to 50% confluence. […] After 48 h the cells in each well were transfected using Lipofectamine 2000 and 24-30 h later were loaded with FIuo4AM (Molecular Probes). Thereafter they were stimulated with bitter compounds (SigmaAldrich, further purified by reversed-phase HPLC to >99% purity). Calcium signals were recorded simultaneously from each well at 1 Hz at 510 nm after excitation at 488 nm and the recordings were corrected for cell density. […]
Single-cell Ca^2+ imaging was performed with the hTAS2R16-transfected HEK293/15 cells as described in Cell 95, 917-926 (1998), but with the following modifications: The Till Photonics imaging system (Munich, Germany) was used in which a monochromator is connected by a quartz fiber lightguide and an epifluorescence condenser to an inverted Olympus IX50 microscope equipped with a UApo/340 40×1.35 oil-immersion lens. […] The 5 s interval camera pictures of all cells in the microscope field of vision permanently were stored and analyzed offline. […]

human panelists [4] = experiment: Human taste adaptation experiment; format: in vivo; conditions: for bitterness after prolonged stimulation with phenyl-beta-D-glucopyranoside (cross-adaptation): in vivo
Protocol: To investigate adaptation, the 8 panelists first maintained aqueous solutions (5 ml) of phenyl-β-D-glucopyranoside (8 mM), phenyl-alpha-D-glucopyranoside (180 mM), salicin (8 mM), or helicin (8 mM) for 15 s in their oral cavities and evaluated the bitter intensity as described above. After 30 min, they kept a denatonium benzoate solution (5 ml, 0.0003 mM) for 15 s in their mouth and evaluated its bitterness. The panelists spat off the denatonium benzoate solution, took up the phenyl-β-D-glucopyranoside or the phenyl-alpha-D-glucopyranoside solutions orally for 120 s or 180 s and judged their bitterness intensity after 15, 30, 60, 120 and 180s. Thereafter, the panelists spat off these solutions and then sequentially took up salicin, helicin (5 ml, 8 mM) and denatonium benzoate (5 ml, 0.0003 mM) and evaluated bitterness intensities of these solutions after 15 s. After an additional 30 min, the first experiment was repeated. The data of three different sessions for each panelist were averaged. Intensity values between individuals and separate sessions differed by not more than ±0.5 units.

hTAS2R16 [5] = biological target: T3, hTAS2R16; experiment: FLIPR assay, heterologous expression of hTAS2R16; format: cell-based; conditions: hTAS2R16
From the text: (§1) Transient transfection of TAS2Rs into HEK-293T-Gα16gustducin44 cells.

hTAS2R10 [6] = biological target: T4, hTAS2R10 (Homo sapiens, UniProt Q9NYW0, T156M); experiment: FLIPR assay, heterologous expression of hTAS2R10; format: cell-based
T4 construct: gene-specific primers that span the complete coding region of the individual hTAS2R genes; first 45 amino acids of rat somatostatin type 3 receptor (cell surface-targeting signal) (N); expressed in transfected cells; host or cells: HEK-293T-Gα16gustducin44 cells (alternatively HEK-293 co-transfected with phospholipase-Cβ2 and α-gustducin)
T4 sequence (Q9NYW0 1-307 T156M): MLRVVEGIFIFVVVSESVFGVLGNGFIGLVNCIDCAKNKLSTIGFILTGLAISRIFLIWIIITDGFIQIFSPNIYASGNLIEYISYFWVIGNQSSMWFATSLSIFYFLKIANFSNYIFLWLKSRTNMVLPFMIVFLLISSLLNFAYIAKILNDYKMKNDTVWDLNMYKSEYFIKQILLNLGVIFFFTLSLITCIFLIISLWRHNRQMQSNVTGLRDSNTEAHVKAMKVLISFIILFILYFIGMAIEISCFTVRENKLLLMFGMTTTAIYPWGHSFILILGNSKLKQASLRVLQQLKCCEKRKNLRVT
From the text: as §1

hTAS2R14 = biological target: T5, hTAS2R14 (Homo sapiens, UniProt Q9NYV8); experiment: FLIPR assay, heterologous expression of hTAS2R14; format: cell-based
T5 construct: gene-specific primers that span the complete coding region of the individual hTAS2R genes; first 45 amino acids of rat somatostatin type 3 receptor (cell surface-targeting signal) (N); expressed in transfected cells; host or cells: HEK-293T-Gα16gustducin44 cells (alternatively HEK-293 co-transfected with phospholipase-Cβ2 and α-gustducin)
T5 sequence (Q9NYV8 1-317): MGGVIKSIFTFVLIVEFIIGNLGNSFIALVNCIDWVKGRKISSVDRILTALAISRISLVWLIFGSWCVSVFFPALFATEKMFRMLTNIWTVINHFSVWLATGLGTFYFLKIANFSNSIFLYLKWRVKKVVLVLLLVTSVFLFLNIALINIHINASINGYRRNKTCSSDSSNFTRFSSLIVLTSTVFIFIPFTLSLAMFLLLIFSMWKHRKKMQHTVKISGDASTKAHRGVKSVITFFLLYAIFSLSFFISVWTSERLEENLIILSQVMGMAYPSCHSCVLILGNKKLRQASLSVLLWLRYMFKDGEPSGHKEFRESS
From the text: as §1

hTAS2R10 [7] = biological target: T4, hTAS2R10; experiment: FLIPR calcium assay, hTAS2R10-expressing HEK293/15 transfectants; format: cell-based
Protocol: A fluorescence imaging plate reader (FLIPR, Molecular Devices) was used to functionally screen cell populations transiently transfected with expression vectors encoding the above-described 24 bitter receptors and to establish concentration-response curves for hTAS2R16 and hTASR10. […] For the FLIPR experiments the HEK293/15 cells were grown to 50% confluence. The cells were then seeded at a density of 3×10^3 cells per well into 96-well black-wall, clear-bottom microtiter plates (Greiner). After 48 h the cells in each well were transfected using Lipofectamine 2000 and 24-30 h later were loaded with FIuo4AM (Molecular Probes). […] The responses of five wells containing cells expressing the same receptor and that received the same stimulus (i.e., the same compound at the same concentration) were averaged. Calcium traces were subtracted that were determined in triplicate of mock-transfected cells stimulated with the same concentration of tastant. The calculations rest on at least four independent transfection experiments.

- reacts at (hTAS2R14): 1 mM
- receptor activation (in words) (hTAS2R14): activated
SMILES: N[C@@H](Cc1ccc(O)cc1)C(=O)O [L-Tyrosine]

- receptor activation (in words) (hTAS2R14): activated
SMILES: N[C@@H](Cc1c[nH]cn1)C(=O)O [histidine]

- receptor activation (in words) (hTAS2R14): activated
SMILES: CC(C)C[C@H](N)C(=O)O [leucine]

- receptor activation (in words) (hTAS2R14): activated
SMILES: N[C@@H](Cc1ccccc1)C(=O)O [phenylalanine]

Further lines, the molecule ahead of its results:

SMILES: CCCc1cc(=O)[nH]c(=S)[nH]1 [6-Propyl-2-thiouracil]
- Approx. Threshold (hTAS2R38): 0.3 µM
- receptor activation (in words) (hTAS2R38): activated
- EC50 (hTAS2R38; read-out: EC50): 2 µM
- in vitro response of the receptor (hT2R4 receptor): provided a response

SMILES: OCc1ccccc1O[C@@H]1O[C@H](CO)[C@@H](O)[C@H](O)[C@H]1O [Compound 2, salicin]
- EC50 (hTAS2R16 [1]): 1400 µM
- Threshold Value FLIPR (hTAS2R16 [1]): 0.07 ± 0.02 mM
- Threshold Value Human (human panelists [2]; bitter threshold, triangle test, tap water): 0.2 ± 0.1 mM
- EC50 (human panelists [2]; bitterness intensity dose-response): 1100 µM
- response after repeated stimulation with phenyl-beta-D-glucopyranoside (cross-desensitization) (hTAS2R16 [3]; hTAS2R16-expressing cells): largely diminished responses
- initial bitterness score by test panel (human panelists [4]; 8 mM, 15 s): equally intensely bitter
- bitterness after prolonged stimulation with phenyl-beta-D-glucopyranoside (cross-adaptation) (human panelists [4]): less bitter
- Threshold (hTAS2R16 [5]): 0.07 ± 0.02 mM
- EC50 (hTAS2R16 [5]; read-out: EC50): 1400 ± 200 µM

SMILES: CC[N+](CC)(CC(=O)Nc1c(C)cccc1C)Cc1ccccc1.O=C([O-])c1ccccc1 [Denatonium benzoate]
- activation of TAS2R16 (hTAS2R16 [3]): cannot activate
- bitterness after prolonged stimulation with phenyl-beta-D-glucopyranoside (cross-adaptation) (human panelists [4]): not
- Approx. Threshold (hTAS2R10 [6]; hTAS2R10): 0.003 mM
- receptor activation (in words) (hTAS2R10 [6]; hTAS2R10): activated
- EC50 (hTAS2R10 [6]; hTAS2R10, read-out: EC50): 70 µM

SMILES: O=C1C[C@@H]2OCC=C3CN4CC[C@]56c7ccccc7N1[C@H]5[C@H]2[C@H]3C[C@H]46 [Strychnine]
- EC50 (hTAS2R10 [7]): 5 to 20 µM
- threshold of activation (hTAS2R10 [7]; hTAS2R10 transfectants): approximately 0.1 μM
- EC50 (hTAS2R10 [6]): 40 µM
- Approx. Threshold (hTAS2R10 [6]; hTAS2R10): 0.003 mM
- receptor activation (in words) (hTAS2R10 [6]; hTAS2R10): activated

SMILES: CC[N+](CC)(CC(=O)Nc1c(C)cccc1C)Cc1ccccc1 [denatonium]
- in vitro response of the receptor (hT2R4 receptor): provided a response

SMILES: N[C@@H](Cc1c[nH]c2ccccc12)C(=O)O [tryptophan]
- receptor activation (in words) (hTAS2R14): activated
